Test results as given in patent US5861274A, “Nucleic acids encoding peroxisome proliferator-activated receptor” (The Salk Institute for Biological Studies, priority 1995, dated 1999).
Entries after “also recorded” stand apart in the source; their conditions may differ.

Assays:
[1] = biological target: T1, PPARδ (Mus musculus, UniProt P35396); assay: Cotransfection assay, PPRE3-TK-LUC reporter with CMX-PPARδ; type: cell-based; conditions: CV-1 cells; for activation of PPARδ (reporter expression), in words: 5 μM Wy 14,643, 30 μM linoleic acid or 30 μM LY-171883; for rank order of efficacy of activation, PPARδ: FIG. 4, 5 μM Wy 14,643, 30 μM linoleic acid, 30 μM LY-171883
T1 sequence (P35396 1-440): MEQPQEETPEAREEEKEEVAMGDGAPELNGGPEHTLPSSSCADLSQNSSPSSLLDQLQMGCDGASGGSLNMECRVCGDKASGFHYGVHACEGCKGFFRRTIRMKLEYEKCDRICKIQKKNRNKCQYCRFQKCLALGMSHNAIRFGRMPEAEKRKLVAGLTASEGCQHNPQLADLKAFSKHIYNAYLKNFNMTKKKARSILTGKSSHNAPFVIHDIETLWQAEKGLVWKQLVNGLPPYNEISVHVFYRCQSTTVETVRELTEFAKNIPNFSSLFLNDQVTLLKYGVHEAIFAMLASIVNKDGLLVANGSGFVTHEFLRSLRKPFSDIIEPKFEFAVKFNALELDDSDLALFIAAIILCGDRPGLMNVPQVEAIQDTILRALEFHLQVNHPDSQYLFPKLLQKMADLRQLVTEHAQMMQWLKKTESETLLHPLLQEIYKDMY
From the text: (§1) The mammalian expression vectors pCMX-PPARα, pCMX-PPARγ and pCMX-PPARδ were constructed by inserting the cDNA inserts of PPARα, PPARγ, and PPARδ into pCMX as previously described by Umesono et al., in Cell 65:1255-1266 (1991)). Construction of the reporter PPRE3 -TK-LUC has also been previously described by Kliewer et al., (1992) supra. Cotransfection assays in CV-1 cells were done in 48 well plates using N-[1-(2,3-dioleoyloxy)-propyl[N,N,N-trimethylammonium methyl sulfate (DOTAP) according to the manufacturer's instructions (Boehringer Mannheim). Transfections contained […] of receptor expression plasmid vector, 20 ng of the reporter PPRE3 -TK-LUC, 60 ng of pCMX-βGAL (β-galactosidase) as an internal control, and 210 ng of carrier plasmid pGEM. Cells were incubated in the presence of DOTAP for 8 hours, washed, and incubated in the presence of peroxisome proliferators or fatty acids for 36 hours. Cell extracts were prepared and assayed for luciferase and β-galactosidase activity as previously described (Umesono, supra). All experimental points were done in triplicate.

[2] = biological target: T2, PPARα (Mus musculus, UniProt P23204); assay: Cotransfection assay, PPRE3-TK-LUC reporter with CMX-PPARα; type: cell-based; conditions: CV-1 cells; for rank order of efficacy of activation, PPARα: FIG. 4, 5 μM Wy 14,643, 30 μM linoleic acid, 30 μM LY-171883
T2 sequence (P23204 1-468): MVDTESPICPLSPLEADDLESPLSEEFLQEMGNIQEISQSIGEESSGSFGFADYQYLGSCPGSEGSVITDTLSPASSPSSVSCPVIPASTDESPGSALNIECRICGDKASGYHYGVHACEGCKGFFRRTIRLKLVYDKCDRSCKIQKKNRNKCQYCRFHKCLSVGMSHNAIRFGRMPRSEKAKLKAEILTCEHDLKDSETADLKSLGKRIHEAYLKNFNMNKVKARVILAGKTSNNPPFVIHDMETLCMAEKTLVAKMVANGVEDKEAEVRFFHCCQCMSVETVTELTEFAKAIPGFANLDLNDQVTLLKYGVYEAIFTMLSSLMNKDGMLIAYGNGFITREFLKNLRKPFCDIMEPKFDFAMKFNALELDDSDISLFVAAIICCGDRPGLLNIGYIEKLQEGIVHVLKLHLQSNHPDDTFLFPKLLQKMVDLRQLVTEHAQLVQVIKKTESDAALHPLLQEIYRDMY
From the text: as §1

[3] = biological target: T3, PPARγ (Mus musculus, UniProt P37238); assay: Cotransfection assay, PPRE3-TK-LUC reporter with CMX-PPARγ; type: cell-based; conditions: CV-1 cells; for activation of PPARγ (reporter expression), in words: 5 μM Wy 14,643, 30 μM linoleic acid or 30 μM LY-171883; for rank order of efficacy of activation, PPARγ: FIG. 4, 5 μM Wy 14,643, 30 μM linoleic acid, 30 μM LY-171883
T3 sequence (P37238 31-475 N383S): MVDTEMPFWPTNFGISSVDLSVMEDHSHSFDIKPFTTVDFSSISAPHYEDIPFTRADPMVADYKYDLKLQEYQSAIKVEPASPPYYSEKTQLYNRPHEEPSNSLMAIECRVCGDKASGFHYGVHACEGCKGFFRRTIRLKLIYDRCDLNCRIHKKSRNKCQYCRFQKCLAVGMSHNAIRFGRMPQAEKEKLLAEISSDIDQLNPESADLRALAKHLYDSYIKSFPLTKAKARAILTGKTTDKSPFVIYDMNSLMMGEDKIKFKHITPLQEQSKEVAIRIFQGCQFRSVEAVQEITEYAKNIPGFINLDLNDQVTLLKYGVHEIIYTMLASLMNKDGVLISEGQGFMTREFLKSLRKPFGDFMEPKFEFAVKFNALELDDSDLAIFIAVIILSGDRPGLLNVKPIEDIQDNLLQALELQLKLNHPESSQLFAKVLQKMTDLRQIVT
From the text: Luciferase activities are presented as the fold activation achieved in compound-treated versus mock-treated cells. Similar results were obtained in triplicate in three independent experiments.
as §1

[4] = test system: PPARalpha (Mus musculus); assay: cell_activity; conditions: activation by 5 uM Wy 14,643 in CV-1 cells

| rank order of efficacy of activation, PPARδ [1] | rank order of efficacy of activation, PPARα [2] | rank order of efficacy of activation, PPARγ [3] | Molecule | activation of PPARδ (reporter expression), in words [1] | activation of PPARγ (reporter expression), in words [3] | activation of PPARα (reporter expression), in words ([2]; 5 μM Wy 14,643, 30 μM linoleic acid or 30 μM LY-171883) | activity [4] [fold] |
| --- | --- | --- | --- | --- | --- | --- | --- |
| linoleic acid>LY-171883 and Wy 14,643 | Wy 14,643>LY-171883>linoleic acid | LY 171883>linoleic acid>Wy 14,643 | CCCc1c(OCCCCc2nnn[nH]2)ccc(C(C)=O)c1O [LY-171883] | strong activators | significant activation; also recorded: most efficiently activated | – | – |
| linoleic acid>LY-171883 and Wy 14,643 | Wy 14,643>LY-171883>linoleic acid | LY 171883>linoleic acid>Wy 14,643 | CCCCC/C=C\C/C=C\CCCCCCCC(=O)O [linoleic acid] | strong activators; also recorded: most efficiently activated | no activation | – | – |
| – | – | – | PPRE3-TK-LUC reporter | – | – | – | > 100 |

| Molecule | rank order of efficacy of activation, PPARδ [1] | rank order of efficacy of activation, PPARα [2] | rank order of efficacy of activation, PPARγ [3] | activation of PPARδ (reporter expression), in words [1] | activation of PPARγ (reporter expression), in words [3] | activation of PPARα (reporter expression), in words ([2]; 5 μM Wy 14,643, 30 μM linoleic acid or 30 μM LY-171883) | activity [4] [fold] |
| --- | --- | --- | --- | --- | --- | --- | --- |
| Cc1cccc(Nc2cc(Cl)nc(SCC(=O)O)n2)c1C [Wy 14,643] | – | Wy 14,643>LY-171883>linoleic acid | LY 171883>linoleic acid>Wy 14,643 | – | no activation; also recorded: fail 30 to respond; also recorded: fails to activate | most efficiently activated | – |
